Among the data in ChEMBL document CHEMBL1135058, “New anti-malarial compounds from database searching” (Bioorg Med Chem Lett, 2002) are IC50 values, retold here.

Assay [1] relates to Plasmodium falciparum. Description: In vitro inhibition as IC50 against Plasmodium falciparum by [3H]hypoxanthine uptake. It counts as functional, organism-based.
The test system of assay [2] is Plasmodium falciparum. Description: In vitro inhibition as IC50 against Plasmodium falciparum by [3H]hypoxanthine uptake; Not active. It counts as functional, organism-based.
Setting [3] is: Plasmodium falciparum, read-out: IC50.

Broadly, the IC50 is the concentration needed to halve the response being measured. For the molecule `COc1ccc(/C(=N\O)c2nccc3cc(OC)c(OC)cc23)cc1OC`, the IC50 in assay [1] (setting [3]) stood at 20 µM.
Turning to `Cc1ccc(C(C)C)c(OP(=S)(S)Oc2cc(C)ccc2C(C)C)c1`, the IC50 result in assay [2] is “Not Active”.
For the molecule `Cc1cc2c3c(c1-c1c(C)cc4c(C(C)C)c(O)c(O)c(C=N)c4c1O)OC1=C4C(=O)C(O)C(C(C)C)c5cc(C)c(-c6c(C)cc7c(C(C)C)c(O)c(O)c(C=O)c7c6O)c(c54)OC(=C3C(=O)C(O)C2C(C)C)N1` (centres undefined), the IC50 in assay [1] (setting [3]) came to 6.6 µM.
For the molecule `COc1ccc(C2OCC3(O)C(c4ccc(OC)c(OC)c4)OCC23)cc1OC` (centres undefined), the IC50 in assay [1] (setting [3]) was found to be 3.2 µM.
`COc1cc(C(=O)C(O)c2cc(OC)c(OC)c(OC)c2)cc(OC)c1OC` (centres undefined): the 50% inhibitory concentration (IC50) in assay [1] (setting [3]) was 20 µM.
For the molecule `CCN(CC)c1ccc(NCC(O)c2cc(Cl)ccc2OC)cc1` (centres undefined), the IC50 in assay [1] (setting [3]) was found to be 4 µM.
Turning to `COc1cccc(C(O)C2=CC(=O)c3ccccc3C2=O)c1OC` (centres undefined), the concentration for half-maximal inhibition (IC50) in assay [1] (setting [3]) was 4.6 µM.
Take `COc1cccc(CN2CCCN(Cc3cccc(OC)c3O)C2c2ccc(N(CCCl)CCCl)cc2C)c1O`: the IC50 in assay [1] (setting [3]) turned out to be 1.2 µM.
As to `O=C1C=CC(=C(c2ccc(O)cc2)c2c(Cl)c(Cl)c(Cl)c(Cl)c2C(=O)O)C=C1`, in assay [1] (setting [3]), the IC50 amounted to 20 µM.
In turn, `CCN(CC)CCCC(C)Nc1ccnc2cc(Cl)ccc12.O=P(O)(O)O.O=P(O)(O)O` (centres undefined) [CHLOROQUINE PHOSPHATE] gave a 50% inhibitory concentration (IC50) in assay [1] of 0.16 µg/mL.
Regarding `COc1ccccc1/C=C/C(=O)O` [COUMARINIC ACID METHYL ETHER], in assay [1] (setting [3]), the IC50 came to 3 µM.
Regarding `COc1ccc(CC(=O)c2c(O)c3c(c(CC=C(C)C)c2OC)OC(C)(C)CC3)cc1`, in assay [1] (setting [3]), the IC50 stood at 6.2 µM.
Take `COc1cc(C(c2c(O)oc3ccccc3c2=O)c2c(O)oc3ccccc3c2=O)cc(OC)c1OC`: the IC50 in assay [1] (setting [3]) was above 2 µM.
For the molecule `COc1ccc(C(O)C2c3c(cc4c(c3OC)OCO4)CCN2C)c(CO)c1OC` (centres undefined), in assay [1] (setting [3]), the IC50 was 8 µM.
